Experimental findings from patent US20230414571A1, “APPLICATION OF SMALL-MOLECULE COMPOUND IN PREPARATION OF ANTITUMOR DRUG” (SOOCHOW UNIVERSITY, priority 2021, published 2023) are described below.

“Also recorded” adds a separate entry of the source.

Data set [1] deals with cranial nerve glioma cell U87. Nature of the data set: Antiproliferative activity against cranial nerve glioma cell U87. It is filed as cell-based. Particulars: U87 cells, FIG. 14. The source says:
FIG. 14 is an antiproliferative activity test diagram of compound 8, compound 11, compound 13, and compound 21 against a cranial nerve glioma cell U87.

Data set [2] has as its target T1, hexokinase 2 (HK2) (Homo sapiens, UniProt P52789).
T1 sequence (P52789 1-917): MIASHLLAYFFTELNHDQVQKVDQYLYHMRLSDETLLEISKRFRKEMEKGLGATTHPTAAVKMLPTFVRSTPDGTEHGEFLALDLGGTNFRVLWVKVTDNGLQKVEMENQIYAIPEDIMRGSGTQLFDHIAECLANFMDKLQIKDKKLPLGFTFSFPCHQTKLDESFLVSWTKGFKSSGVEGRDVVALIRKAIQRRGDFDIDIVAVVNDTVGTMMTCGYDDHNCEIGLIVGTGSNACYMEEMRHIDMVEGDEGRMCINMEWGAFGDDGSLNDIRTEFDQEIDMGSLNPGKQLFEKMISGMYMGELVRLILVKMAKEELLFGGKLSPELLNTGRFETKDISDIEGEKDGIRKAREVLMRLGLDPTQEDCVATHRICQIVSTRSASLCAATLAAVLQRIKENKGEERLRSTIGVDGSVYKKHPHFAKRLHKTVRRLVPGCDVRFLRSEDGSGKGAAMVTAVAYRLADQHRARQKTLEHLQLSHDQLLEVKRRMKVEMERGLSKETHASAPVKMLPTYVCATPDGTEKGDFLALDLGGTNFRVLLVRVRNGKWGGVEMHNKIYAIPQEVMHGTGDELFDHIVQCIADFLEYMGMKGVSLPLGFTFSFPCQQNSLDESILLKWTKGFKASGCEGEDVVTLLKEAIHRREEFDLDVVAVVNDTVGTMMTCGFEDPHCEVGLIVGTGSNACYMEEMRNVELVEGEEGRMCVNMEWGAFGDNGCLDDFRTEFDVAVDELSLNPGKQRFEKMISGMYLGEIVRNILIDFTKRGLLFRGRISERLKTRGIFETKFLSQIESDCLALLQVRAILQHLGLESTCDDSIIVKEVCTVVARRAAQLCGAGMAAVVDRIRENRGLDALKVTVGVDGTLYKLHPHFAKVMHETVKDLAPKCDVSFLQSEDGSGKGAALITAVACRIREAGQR
Nature of the data set: HK2 activity test on GLMSD platform (graphite dots MALDI-MS). It counts as biochemical. Particulars: for inhibitory effect on the HK2: inhibition curves FIGS. 3-7, colorimetric kit and GLMSD; for inhibition at 20 µM: read-out: inhibition rate of HK2 activity. The procedure:
GDs were dispersed in water at a concentration of 1 mg/mL as a matrix solution to be used. A sample was prepared by using a quick-drying method: firstly, 1 μL of matrix solution was dropped onto a target plate, and after natural drying at a room temperature in a […], 1 μL of sample to be analyzed was dropped onto a surface of the dried matrix, and after the sample was naturally dried, mass spectrometry was directly performed:
An instrument in the MALDI-MS was a Bruker Ultraflex III TOF/TOF mass spectrometer, which was mainly in a reflection positive and negative ion mode. Nd of 355 nm for instrument parameter: YAG laser had laser energy of 30% corresponding to 57 μJ per pulse (laser pulse duration: 3 ns), a laser spot size was about 50-100 μm, each sample was repeatedly tested four times, and 3000 laser spots were accumulated in each mass spectrum. All samples were measured under the same instrumental conditions.
an inhibition rate=(1−B/A)×100%, where • A was: a glucose concentration in a pre-reaction solution without the inhibitor-a glucose concentration in a post-reaction solution without the inhibitor, • B was: a glucose concentration in a pre-reaction solution with the inhibitor-a glucose concentration in a post-reaction solution with the inhibitor, and • a glucose concentration in the reaction solution=(mass spectrum signal strength of [glucose+Na]+/mass spectrum signal strength of [glucose-1-^13C+Na]+)×known concentration of glucose-1-^13C.

Data set [3] relates to U87MG tumor. Nature of the data set: U87MG tumor growth and survival in mice after various treatments. It counts as in vivo, nude mouse. Particulars: for median survival time: mice with U87MG tumor, n=6 per group. From the text: In all different experimental groups (a and b in FIG. 10), the overall survival (OS) of mice treated with TMZ and compound 27 is the best. […] However, mouse death caused by glioma is reduced only 20 days […] treatment. After this period of time, the survival rates of the in-situ U87 heterogeneous tumor of the two single drug groups decreases rapidly due to malignant glioma.

Data set [4] in a line: Plasma pharmacokinetics in mice determined by GLMSD. It is filed as in vivo, mouse. Particulars: ip, TMZ injected into abdominal cavity of mouse, plasma, average of 8 mice. As for the experimental part:
It can be seen from FIG. 8-1 that the GLMSD platform can specifically acquire the pharmacokinetic data of small-molecule compound 27. Competitive advantages of GLMSD in pharmacokinetic research: (1) a complete drug blood concentration curve of each individual may be tracked; and (2) the total number of mice used in the test is reduced. Since the blood sample consumption of the GLMSD method is low (10 μL of blood per time point), one mouse can be used for completing the entire pharmacokinetic curve (blood sampling at 11 time points within 24 hours, and the minimum interval being 0.25 hour) of a drug.
Based on the advantage that the complete PK curve can be tested by means of the GLMSD, we observe that 3 (#2, #3 and #4) in 8 mice have the characteristic re-absorption peak of this small-molecule inhibitor at the time point of 8 h, and such a characteristic re-absorption peak hardly exists in other 5 mice. This significant phenomenon is related to drug uptake differences between individuals, prompting that compound 27 may re-enter blood circulation by means of a secondary absorption pathway. In the mode of continuous multiple administration (c in FIG. 8-2), pharmacokinetic data of compound 27 (40 mg/kg) was collected from each mouse every day (1, 3, 6, and 8 hours after last administration) for 5 days. For a single dose (a in FIG. 8-2) or a continuous multi-dose (d in FIG. 8-2) administration manner, a limitation of a conventional LC-MS technology lies in obtaining a single data point of pharmacokinetics of a drug by sacrificing one mouse, whereas GLMSD can break through this limitation by providing a complete pharmacokinetic curve based on a single mouse.

The mark [5] stands for this setting: small-molecule concentration of the inhibitor 20 μM, GLMSD.

As a reminder, the inhibition is the relative decrease from the control value, in per cent. As to `Cc1c(CCC(=O)NC2CS(=O)(=O)CC2O)c(=O)oc2cc(O)ccc12` (stereo not shown) [compound 11], in data set [1], the “inhibitory effect on U87” value is recorded as “inhibitory effects on U87”. For the same compound, the “inhibitory effect on the HK2” value in data set [2] is on record as “good inhibition effect; also recorded: good inhibitory effects”. In addition, the inhibition at 20 µM in data set [2] (setting [5]) came out at 29%.
For `COc1cccc(CNCCCn2ccnc2)c1OCc1ccc(F)cc1` [compound 8], the “inhibitory effect on U87” value in data set [1] was “inhibitory effects on U87”. Further, the “inhibitory effect on the HK2” value in data set [2] is listed as “good inhibitory effects”. Also, the “inhibition rate of HK2 activity” value in data set [2] (setting [5]) was found to be 44%.
Regarding `COc1ccccc1OCC(=O)NNC(=O)CCCC(=O)NNC(=O)COc1ccccc1OC` [compound 21], the “inhibitory effect on U87” value in data set [1] is “inhibitory effects on U87”. For the same compound, in data set [2], the “inhibitory effect on the HK2” value is given as “good inhibitory effects”. Further, the inhibition at 20 µM in data set [2] (setting [5]) worked out at 25%.
Turning to `O=C(O)C(=O)CBr` [3-BP, 3-bromopyruvic acid, reference compound], in data set [3], the median survival time amounted to 17 days.
One may read the Cmax as the maximum level reached in the sampled fluid or tissue. As a reminder, the Tmax is the time at which the peak concentration occurs. With `COc1ccc(CN2CCNCC2)c(OC)c1OC` [TMZ, Trimetazidine, reference compound], the AUC(0-t) in data set [4] (read-out: AUC0-24 h) came to 247 µg·h/mL. In addition, in data set [4] (read-out: Cmax), the Cmax is 33700 ng/mL. In data set [4] (read-out: T1/2 (converted)), the half-life is 1.72 h. The Tmax in data set [4] (read-out: Tmax) came out at 0.5 h. Moreover, the “glioma growth / survival rate, bioluminescence tracking” value in data set [3] (in situ U87-luciferase mice, compared with PBS) was “delays the growth of glioma”. This compound had a median survival time in data set [3] of 35 days.
